Measurements from patent publication US8215314B2, “Photochemical tissue bonding” (The General Hospital Corporation, priority 2000, dated 2012).

What was measured:
[1] = system: corneal incision, rabbit eyes ex vivo; assay: IOP required to produce fluid leakage from corneal incision (IOPL) after PTB, ex vivo; conditions: for mean IOPL: 4.5 mM, 351 nm
Experimental: PTB can be used to seal or repair a tissue, e.g., a wound, e.g., a corneal wound. This example illustrates the experimental procedure designed to test the efficacy of PTB, as described herein, using mammalian corneas ex vivo. Experiments were performed according to the following procedure.
Rabbit eyes were received on ice (Pel-Freez Biologicals) approximately 17-24 hours after sacrifice and enucleation. The eyes were kept on ice and used the same day. The eye to be studied was mounted on a plastic-covered polystyrene block and fixed in position by needles inserted through the extraocular muscles into the polystyrene. The eye was then placed under a dissecting microscope (Reichert Scientific Instruments, Ill.) allowing visualization of the treated area during the entire procedure. A 27 G needle was inserted parallel to the iris, 2 mm anterior to the limbus into clear cornea, and positioned above the lens in the anterior chamber. The needle was connected to both a blood pressure transducer (Harvard Apparatus, Mass.) and a mini-infuser 400 (Bard Harvard) via a T coupler. The pressure transducer consists of a transducer element that is hard wired to an amplifier box and uses a semi-disposable dome with an integral silicone rubber membrane. Pressure inside the dome is transmitted through the membrane to a plastic button whose motion is translated to a voltage. The voltage generated by the transducer amplifier combination is proportional to the […] intraocular pressure (IOP). Signals from the transducer amplifier were recorded using a Macintosh G3 Power book equipped with a PCMICA (DAQCARD—1200) data acquisition card (National Instruments, Tex.). Data acquisition was controlled using programs written using the LabView 4 software package (National Instruments, Tex.). The voltage from the transducer and amplifier was converted to pressure by calibrating with a standing manometer.
Experiments on individual eyes were initiated by increasing the IOP to 30-40 mm Hg, using water infusion at a rate of 1 mL per minute. An incision was made in the cornea, 1 mm from the limbus and parallel to the iris, using a 3.5 mm angled keratome (Becton Dickinson Co.). For each eye the IOP required to produce fluid leakage from the incision (IOPL) was recorded pre- and post-PTB treatment. A photosensitizer, dissolved in phosphate buffer solution (PBS, pH 7.2, Gibco BRL) was applied to the walls of the incision using a Gastight, 50 μl syringe (Hamilton Co.) with a 27 G needle.
Irradiations employed a continuous wave (CW) argon-ion laser (Innova 100; Coherent, Inc., Palo Alto, Calif.) at 488 nm (for Fl and R-5-P), 514.5 nm (for RB) or 351 nm (for NHPT). An argon-ion-pumped dye laser (CR-599; Coherent) with 4-dicyanomethylene-2-methyl-6-(p-dimethylaminostyryl)-4H-pyran dye (Exciton, Inc., Dayton, Ohio) was used for irradiation at 661 nm (for MB). Laser light was coupled into a 1 mm diameter quartz fiber and a 1 cm diameter spot on the tissue was created by using a combination of 1 and 2 inch focal length, S1-UV grade fused silica, biconvex lenses (Esco Products), mounted in a SM1 series cage assembly (Thorlabs, N.J.). The 1 cm diameter circular spot was sufficient to cover the entire incision and the optics were adjusted so that the laser light was incident on the cornea at an angle approximately 45° to the plane of the incision. Dose response curves were obtained by varying the duration of the irradiation at a constant irradiance. In separate experiments the effects of laser irradiance were investigated by comparison of the same delivered dose using different irradiances. The doses used ranged from 124 to 1524 J/cm^2 and the irradiances used were 0.64, 1.27, 2.55 and 3.86 W/cm^2. The laser exposure time varied from 33 seconds for the lowest dose using the highest irradiance to 26 minutes, 27 seconds for the highest dose using the lowest irradiance. The IOPL was recorded immediately following treatment. […]

[2] = Absorption maxima and absorption coefficients of photosensitizers; format: physicochemical; conditions: for absorption coefficient at the laser wavelength used: RB at 514 nm, Fl at 488 nm, MB at 661 nm, R-5-P at 488 nm, N-HPT at 351 nm
Text: The photosensitizers were used as received with the exception of N-HPT which was recrystallized twice from aqueous ethanol before use.

[3] = system: corneal incision, rabbit eyes ex vivo; assay: IOP required to produce fluid leakage from corneal incision (IOPL) after PTB, ex vivo; conditions: 488 nm

Compound	mean IOPL ([1]; 0.64 W/cm2, 254 J/cm2) [mm Hg]	mean IOPL ([1]; 0.64 W/cm2, 508 J/cm2) [mm Hg]	absorption maximum [2] [nm]	absorption coefficient at the laser wavelength used [2] [dm^3 mol^−1 cm^−1]	IOPL ([3]; 0.6 mM Fl, 762 J/cm^2 at 3.82 W/cm^2) [mm Hg]	post-treatment IOPL ([1]; MB 3 mM, 661 nm, 0.64 W/cm^2, doses 508, 762 and 1016 J/cm^2)	post PTB treatment IOPL value ([3]; 11 mM R-5-P, 762 and 1016 J/cm^2, 1.27-3.82 W/cm^2, p<0.05)
On1ccccc1=S [N-HPT, N-hydroxypyridine-2-(1H)-thione]	60±23	126±40	314	2110			
O=C1OC2(c3ccc(O)cc3Oc3cc(O)ccc32)c2ccccc21 [Fl, fluorescein]					116±40		
CN(C)c1ccc2nc3ccc(=[N+](C)C)cc-3sc2c1 [MB, methylene blue]			664	15600		did not increase	
Cc1cc2nc3c(=O)[nH]c(=O)nc-3n(C[C@H](O)[C@H](O)[C@H](O)COP(=O)(O)O)c2cc1C [R-5-P, riboflavin-5-phosphate]			445	4330			significantly increased
